One assay has as its system CYPES. Briefly: Postemergence foliar-applied, direct seeded rice weeds (Example I). It is filed as in vivo, Cyperus esculentus L. From the text: Seeds or nutlets of the desired test plant species were planted in a soil matrix prepared by mixing a loam or sandy loam soil (e.g., 28.6 percent silt, 18.8 percent clay, and 52.6 percent sand, with a pH of about 5.8 and an organic matter content of about 1.8 percent) and calcareous grit in an 80 to 20 ratio. The soil matrix was contained in plastic pots with a volume of 1 quart and a surface area of 83.6 cm^2. When required to ensure good germination and healthy plants, a fungicide treatment and/or other chemical or physical treatment was applied. The plants were grown for 8-22 days in a greenhouse with an approximate 14 h photoperiod which was maintained at about 29° C. during the day and 26° C. during the night. Nutrients (Peters Excel® 15-5-15 5-Ca 2-Mg and iron chelate) were applied in the irrigation solution as needed and water was added on a regular basis. Supplemental lighting was provided with overhead metal halide 1000-Watt lamps as necessary. The plants were employed for testing when they reached the first through fourth true leaf stage.
Treatments consisted of the acid or esters of 4-amino-3-chloro-5-fluoro-6-(4-chloro-2-fluoro-3-methoxy-phenyl)pyridine-2-carboxylic acid (Compound A), each formulated as an SC (suspension concentrate), and various herbicidal components alone and in combination. Forms of compound A were applied on an acid equivalent basis.
Other herbicidal components were applied on an acid equivalent basis and include acetolactate synthase (ALS)-inhibiting herbicides (imidazolinone chemical class) imazethapyr ammonium salt formulated as Newpath®, imazamox ammonium salt formulated as Beyond®, imazapic ammonium salt formulated as Plateau®, imazapyr isopropylamine salt formulated as Arsenal®, imazamethabenz-methyl (technical material) and imazaquin isopropylamine salt formulated as Scepter®/Imagine®.
(§1) Treatment requirements were calculated based upon the rates being tested, the concentration of active ingredient or acid equivalent in the formulation, and a 12 mL application volume at a rate of 187 L/ha.
For treatments comprised of formulated compounds, measured amounts of compounds were placed individually in 25 mL glass vials and diluted in a volume of 1.25% (v/v) Agri-Dex® crop oil concentrated to obtain 12× stock solutions. […] Application solutions were prepared by adding an appropriate amount of each stock solution (e.g., 1 mL) and diluted to the appropriate final concentrations with the addition of 10 mL of an aqueous mixture of 1.25% (v/v) crop oil concentrate so that the final spray solutions contained 1.25+/−0.05% (v/v) crop oil concentrate.
For treatments comprised of technical compounds, weighed amounts can be placed individually in 25 mL glass vials and dissolved in a volume of 97:3 v/v acetone/DMSO to obtain 12× stock solutions. […] Application solutions can be prepared by adding an appropriate amount of each stock solution (e.g., 1 mL) and diluted to the appropriate final concentrations with the addition of 10 mL of an aqueous mixture of 1.5% (v/v) crop oil concentrate so that the final spray solutions contain 1.25% (v/v) crop oil concentrate. When technical materials are used, the concentrated stock solutions can be added to the spray solutions so that the final acetone and DMSO concentrations of the application solutions are 16.2% and 0.5%, respectively.
For treatments comprised of formulated and technical compounds, weighed amounts of the technical materials were placed individually in 25 mL glass vials and dissolved in a volume of 97:3 v/v acetone/DMSO to obtain 12× stock solutions, and measured amounts of the formulated compounds were placed individually in 25 mL glass vials and diluted in a volume of 1.5% (v/v) crop oil concentrate or water to obtain 12× stock solutions. […]

The next assay concerns ALOMY. Put plainly: Postemergence foliar-applied, general weed control (Example III). In kind it is in vivo, Alopecurus myosuroides Huds. How it is done: Seeds or nutlets of the desired test plant species were planted in Sun Gro Metro-Mix® 360 planting mixture, which typically has a pH of about 6.0 to about 6.8 and an organic matter content of about 30 percent, in plastic pots with a surface area of 84.6 cm^2 and a volume of 560 cubic centimeters (cm^3). When required to ensure good germination and healthy plants, a fungicide treatment and/or other chemical or physical treatment was applied. The plants were grown for 7-31 days (d) in a greenhouse with an approximate 15 hour (h) photoperiod which was maintained at about 23-29° C. during the day and about 22-28° C. during the night. Nutrients (Peters Excel® 15-5-15 5-Ca 2-Mg) and water were added on a regular basis and supplemental lighting was provided with overhead metal halide 1000-Watt lamps as necessary. The plants were employed for testing when they reached the first, second, or third true leaf stage.
as §1
Treatments consisted of the acid or esters of 4-amino-3-chloro-5-fluoro-6-(4-chloro-2-fluoro-3-methoxy-phenyl)pyridine-2-carboxylic acid (Compound A), each formulated as an SC, and various herbicidal components alone and in combination. Forms of compound A were applied on an acid equivalent basis.
Other herbicidal components were applied on an acid equivalent basis and included acetolactate synthase (ALS)-inhibiting herbicides (imidazolinone chemical class) imazethapyr ammonium salt formulated as Newpath®, and imazapic ammonium salt formulated as Plateau®.
For treatments comprised of formulated compounds, measured amounts of compounds were placed individually in 25 mL glass vials and diluted in a volume of 1.25% (v/v) Agri-Dex® crop oil concentrated to obtain 12× stock solutions. […] Application solutions were prepared by adding an appropriate amount of each stock solution (typically 1 mL) and diluted to the appropriate final concentrations with the addition of 10 mL of an aqueous mixture of 1.25% (v/v) crop oil concentrate so that the final spray solutions contained 1.25+/−0.05% (v/v) crop oil concentrate.
All stock solutions and applications solutions were visually inspected for compound compatibility prior to application. […]
The treated plants and control plants were placed in a greenhouse as described above and watered by sub-irrigation to prevent wash-off of the test compounds. After approximately 3 weeks, the condition of the test plants as compared with that of the untreated plants was determined visually and scored on a scale of 0 to 100 percent where 0 corresponds to no injury or growth inhibition and 100 corresponds to complete kill. […]

Take `COc1c(Cl)ccc(-c2nc(C(=O)O)c(Cl)c(N)c2F)c1F` [Compound A Acid, 4-amino-3-chloro-6-(4-chloro-2-fluoro-3-methoxyphenyl)-5-fluoropyridine-2-carboxylic acid]: in the assay with CYPES (Compound A Acid 4.38 gae/ha), the “Visual Weed Control (%) - 25 DAA CYPES Obs” value came to 50%. Moreover, the “Visual Weed Control (%) - 19 DAA ALOMY Obs” value with ALOMY (Compound A Acid 29 gae/ha) is 10%.

Regarding `Cc1cnc(C2=NC(C)(C(C)C)C(=O)N2)c(C(=O)O)c1.N` (racemic) [Imazapic ammonium, ammonium (±)-2-[4,5-dihydro-4-methyl-4-(1-methylethyl)-5-oxo-1H-imidazol-2-yl]-5-methyl-3-pyridinecarboxylic acid], in the assay with ALOMY (Imazapic ammonium 35 gae/ha), the “Visual Control (%) - 19 DAA ALOMY Obs” value worked out at 30% and the “Visual Weed Control (%) - 19 DAA ALOMY Obs” value is reported as 30%.

As to `COc1c(Cl)ccc(-c2nc(C(=O)OCc3ccccc3)c(Cl)c(N)c2F)c1F` [Compound A Benzyl Ester, benzyl ester of 4-amino-3-chloro-5-fluoro-6-(4-chloro-2-fluoro-3-methoxy-phenyl)pyridine-2-carboxylic acid], the entries for the “Visual Weed Control (%) - 25 DAA CYPES Obs” value with CYPES (Compound A Benzyl Ester 4.38 gae/ha), in the assay on CYPES (Compound A Benzyl Ester 8.75 gae/ha) and with CYPES (Compound A Benzyl Ester 17.5 gae/ha) were 70%, 90% and 85%, respectively. The “Visual Control (%) - 19 DAA ALOMY Obs” value in the assay with ALOMY (Compound A Benzyl Ester 24 gae/ha) worked out at 20%.

`CCc1cnc(C2=NC(C)(C(C)C)C(=O)N2)c(C(=O)O)c1.N` (racemic) [Imazethapyr ammonium, ammonium (±)-2-[4,5-dihydro-4-methyl-4-(1-methylethyl)-5-oxo-1H-imidazol-2-yl]-5-ethyl-3-pyridinecarboxylate]: the “Visual Weed Control (%) - 25 DAA CYPES Obs” value with CYPES (Imazethapyr ammonium 8.75 gae/ha) is 0%.

For the compound `COCc1cnc(C2=NC(C)(C(C)C)C(=O)N2)c(C(=O)O)c1.N` (racemic) [Imazamox ammonium, ammonium (±)-2-[4,5-dihydro-4-methyl-4-(1-methylethyl)-5-oxo-1H-imidazol-2-yl]-5-(methoxymethyl)-3-pyridinecarboxylate], the “Visual Weed Control (%) - 25 DAA CYPES Obs” value in the assay on CYPES (Imazamox ammonium 5.6 gae/ha) worked out at 0%; in the assay with CYPES (Imazamox ammonium 11.2 gae/ha) it was 0%; with CYPES (Imazamox ammonium 22.4 gae/ha) it was 20%.

The values above are taken from patent US8906826B2, “Herbicidal compositions comprising 4-amino-3-chloro-5-fluoro-6-(4-chloro-2-fluoro-3-methoxyphenyl) pyridine-2-carboxylic acid or a derivative thereof and imidazolinones” (Dow AgroSciences, LLC, priority 2012, dated 2014).
